According to ChEMBL document CHEMBL3407463 (Eur J Med Chem, 2014):
pIC50: −log10 of the molar value. The source made the active and inactive calls. No cut-off for these calls is given here.

Experiments:
Aromatase [1] = target: T1, Aromatase (Homo sapiens, UniProt P11511); assay: Inhibition of human placental microsome aromatase using [1beta-3H] androstenedione as substrate at 2 uM after 15 mins by liquid scintillation counting; details: 0.25 h
T1 sequence (P11511 whole entry): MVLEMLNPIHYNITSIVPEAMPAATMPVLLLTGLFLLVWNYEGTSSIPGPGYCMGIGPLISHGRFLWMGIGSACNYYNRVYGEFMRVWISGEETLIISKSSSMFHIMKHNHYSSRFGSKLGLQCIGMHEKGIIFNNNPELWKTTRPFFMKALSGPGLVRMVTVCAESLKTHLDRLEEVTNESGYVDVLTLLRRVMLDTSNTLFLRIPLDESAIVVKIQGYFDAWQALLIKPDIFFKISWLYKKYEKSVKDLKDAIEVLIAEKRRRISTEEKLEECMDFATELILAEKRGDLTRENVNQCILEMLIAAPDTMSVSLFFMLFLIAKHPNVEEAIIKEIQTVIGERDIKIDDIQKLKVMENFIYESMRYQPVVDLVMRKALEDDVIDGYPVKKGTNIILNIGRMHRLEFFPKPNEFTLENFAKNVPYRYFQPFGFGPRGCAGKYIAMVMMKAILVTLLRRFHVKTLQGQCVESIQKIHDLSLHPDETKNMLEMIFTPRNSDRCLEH

Aromatase [2] = target: T1, Aromatase; assay: Inhibition of human […] aromatase expressed in human MCF7 cells using [1beta-3H] androstenedione as substrate at 10 uM after 1 hr by liquid scintillation counting; type: cell-based
Aromatase [3] = target: T1, Aromatase; assay: Inhibition of human placental microsome aromatase using [1beta-3H] androstenedione as substrate after 15 mins by liquid scintillation counting
MCF7 [4] = assay: Cytotoxicity against human placental microsome aromatase expressing human MCF7 cells assessed as reduction in cell viability at 1 to 2.5 uM after 2 days by MTT assay in presence of testosterone; type: functional
MCF7 [5] = assay: Cytotoxicity against human placental microsome aromatase expressing human MCF7 cells at 5 to 15 uM after 2 to 3 days by LDH assay in presence of testosterone; type: functional, cell-based
MCF7 [6] = assay: Cytotoxicity against human placental microsome aromatase expressing human MCF7 cells at 0.01 to 15 uM by MTT assay in presence of testosterone; type: functional, cell-based; details: TDE = time-dependent effect
MCF7 [7] = assay: Cytotoxicity against human placental microsome aromatase expressing human MCF7 cells assessed as reduction in cell viability up to 5 uM after 3 to 6 days by MTT assay in presence of estradiol; type: functional, cell-based
Aromatase [8] = target: T1, Aromatase; assay: Inhibition of human […] aromatase expressed in human MCF7 cells using [1beta-3H] androstenedione as substrate after 1 hr by liquid scintillation counting; type: cell-based
MCF7 [9] = assay: Cytotoxicity against human placental microsome aromatase expressing human MCF7 cells after 2 to 6 days by MTT assay in presence of testosterone; type: functional, cell-based
MCF7 [10] = assay: Cytotoxicity against human placental microsome aromatase expressing human MCF7 cells assessed as reduction in cell viability up to 15 uM after 3 to 6 days by MTT assay in presence of testosterone; type: functional, cell-based
MCF7 [11] = assay: Cytotoxicity against human placental microsome aromatase expressing human MCF7 cells at 1 to 15 uM after 2 to 6 days by LDH assay in presence of testosterone; type: functional, cell-based
MCF7 [12] = assay: Cytotoxicity against human placental microsome aromatase expressing human MCF7 cells assessed as reduction in cell viability up to 15 uM after 3 to 6 days by MTT assay in presence of estradiol; type: functional, cell-based
MCF7 [13] = assay: Cytotoxicity against human placental microsome aromatase expressing human MCF7 cells at 1 to 15 uM by MTT assay in presence of testosterone; type: functional, cell-based; details: TDE = time-dependent effect
MCF7 [14] = assay: Cytotoxicity against human placental microsome aromatase expressing human MCF7 cells assessed as reduction in cell viability at 5 to 15 uM after 2 days by MTT assay in presence of testosterone; type: functional, cell-based

Structure (SMILES): C=C1C[C@@H]2[C@H](CC[C@]3(C)C(=O)CC[C@@H]23)[C@]2(C)C1=CC(=O)[C@@H]1O[C@@H]12
- inhibition at 2 µM (Aromatase [1]): 86.8%
- inhibition at 10 µM (Aromatase [2]): 88.6%
- pIC50 (Aromatase [3]): 6.09
- Activity (MCF7 [4]): <25%
- Activity (MCF7 [5]): Active
- Activity (MCF7 [6]): tde
- Activity (MCF7 [7]): Active
- pIC50 (Aromatase [8]): 5.93
- Activity (MCF7 [9]): Dose-dependent effect

Structure (SMILES): C=C1C[C@H]2[C@@H]3CC[C@H](O)[C@@]3(C)CC[C@@H]2[C@@]2(C)C=CC(=O)C=C12
- Activity (MCF7 [10]): Active
- Activity (MCF7 [11]): inactive
- Activity (MCF7 [4]): Active
- Activity (MCF7 [12]): Active
- Activity (MCF7 [13]): tde
- Activity (MCF7 [14]): inactive
- Activity (MCF7 [9]): Dose-dependent effect

Structure (SMILES): C[C@]12C=CC(=O)C=C1C(CO)=C[C@@H]1[C@@H]2CC[C@]2(C)C(=O)CC[C@@H]12
- inhibition at 2 µM (Aromatase [1]): 81%
- Activity (MCF7 [11]): inactive
- inhibition at 10 µM (Aromatase [2]): 84%
- pIC50 (Aromatase [3]): 6.17
- Activity (MCF7 [4]): Active
- Activity (MCF7 [12]): Active
- Activity (MCF7 [13]): tde
- Activity (MCF7 [14]): inactive
- pIC50 (Aromatase [8]): 6.01
- Activity (MCF7 [9]): Dose-dependent effect

Structure (SMILES): C[C@]12C=CC(=O)C=C1[C@@]1(CO1)C[C@@H]1[C@@H]2CC[C@]2(C)C(=O)CC[C@@H]12
- inhibition at 2 µM (Aromatase [1]): 91.7%
- Activity (MCF7 [11]): inactive
- inhibition at 10 µM (Aromatase [2]): 95.3%
- pIC50 (Aromatase [3]): 6.21
- Activity (MCF7 [4]): Active
- Activity (MCF7 [12]): Active
- Activity (MCF7 [13]): tde
- Activity (MCF7 [14]): inactive
- pIC50 (Aromatase [8]): 6.14
- Activity (MCF7 [9]): Dose-dependent effect
